Test results reported in paper PMC3914206.

How the values were obtained:
Assay type in all cases: binding
Details in all cases: Compound Concentration 10 µM
[1] = target: T1, panel of 442 kinases (Plasmodium falciparum, UniProt P62344)
T1 construct: purchased KINOMEscan
From the text: (§1) We assessed the selectivity of members of this scaffold using the KINOMEscan methodology across a near comprehensive panel of 442 kinases [[18,27]].

[2] = target: T2, panel of 442 kinases (Homo sapiens, UniProt P00533, L858R/T790M)
T2 construct: purchased KINOMEscan
From the text: as §1

[3] = target: T3, panel of 442 kinases (Homo sapiens, UniProt Q9HC98)
T3 construct: purchased KINOMEscan
From the text: as §1

[4] = target: T4, panel of 442 kinases (Homo sapiens, UniProt P23458)
T4 construct: purchased KINOMEscan
From the text: as §1

T2 sequence (P00533 25-1210 T790M/L858R): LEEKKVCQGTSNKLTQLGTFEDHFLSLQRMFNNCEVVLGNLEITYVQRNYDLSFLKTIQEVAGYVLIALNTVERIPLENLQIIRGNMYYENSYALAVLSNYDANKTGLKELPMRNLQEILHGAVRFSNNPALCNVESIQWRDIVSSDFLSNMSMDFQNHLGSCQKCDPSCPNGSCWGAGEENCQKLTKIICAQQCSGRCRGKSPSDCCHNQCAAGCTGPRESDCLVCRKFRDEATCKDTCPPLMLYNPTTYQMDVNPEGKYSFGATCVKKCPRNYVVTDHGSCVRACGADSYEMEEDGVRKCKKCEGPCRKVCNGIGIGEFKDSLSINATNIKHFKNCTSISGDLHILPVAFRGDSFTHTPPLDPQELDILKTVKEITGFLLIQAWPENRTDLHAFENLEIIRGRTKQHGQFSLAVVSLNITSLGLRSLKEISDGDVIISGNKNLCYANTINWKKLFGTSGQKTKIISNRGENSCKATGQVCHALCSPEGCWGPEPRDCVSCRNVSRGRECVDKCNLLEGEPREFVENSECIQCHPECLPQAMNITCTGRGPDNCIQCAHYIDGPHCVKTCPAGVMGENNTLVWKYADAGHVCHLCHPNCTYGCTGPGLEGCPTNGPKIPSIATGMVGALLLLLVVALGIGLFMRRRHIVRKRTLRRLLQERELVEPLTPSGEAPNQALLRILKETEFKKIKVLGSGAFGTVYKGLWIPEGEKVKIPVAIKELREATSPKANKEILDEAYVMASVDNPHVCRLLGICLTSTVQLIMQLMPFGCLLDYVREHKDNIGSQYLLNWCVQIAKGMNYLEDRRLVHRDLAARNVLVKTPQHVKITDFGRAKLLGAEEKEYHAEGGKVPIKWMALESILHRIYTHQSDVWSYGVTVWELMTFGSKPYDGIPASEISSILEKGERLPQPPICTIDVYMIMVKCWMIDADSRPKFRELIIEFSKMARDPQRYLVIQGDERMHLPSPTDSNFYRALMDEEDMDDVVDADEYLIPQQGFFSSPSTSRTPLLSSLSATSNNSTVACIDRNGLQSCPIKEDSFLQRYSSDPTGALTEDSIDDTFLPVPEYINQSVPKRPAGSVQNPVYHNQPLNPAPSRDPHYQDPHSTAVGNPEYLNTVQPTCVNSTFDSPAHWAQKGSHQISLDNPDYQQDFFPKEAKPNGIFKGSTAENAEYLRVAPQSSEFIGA
T4 sequence (P23458 whole entry): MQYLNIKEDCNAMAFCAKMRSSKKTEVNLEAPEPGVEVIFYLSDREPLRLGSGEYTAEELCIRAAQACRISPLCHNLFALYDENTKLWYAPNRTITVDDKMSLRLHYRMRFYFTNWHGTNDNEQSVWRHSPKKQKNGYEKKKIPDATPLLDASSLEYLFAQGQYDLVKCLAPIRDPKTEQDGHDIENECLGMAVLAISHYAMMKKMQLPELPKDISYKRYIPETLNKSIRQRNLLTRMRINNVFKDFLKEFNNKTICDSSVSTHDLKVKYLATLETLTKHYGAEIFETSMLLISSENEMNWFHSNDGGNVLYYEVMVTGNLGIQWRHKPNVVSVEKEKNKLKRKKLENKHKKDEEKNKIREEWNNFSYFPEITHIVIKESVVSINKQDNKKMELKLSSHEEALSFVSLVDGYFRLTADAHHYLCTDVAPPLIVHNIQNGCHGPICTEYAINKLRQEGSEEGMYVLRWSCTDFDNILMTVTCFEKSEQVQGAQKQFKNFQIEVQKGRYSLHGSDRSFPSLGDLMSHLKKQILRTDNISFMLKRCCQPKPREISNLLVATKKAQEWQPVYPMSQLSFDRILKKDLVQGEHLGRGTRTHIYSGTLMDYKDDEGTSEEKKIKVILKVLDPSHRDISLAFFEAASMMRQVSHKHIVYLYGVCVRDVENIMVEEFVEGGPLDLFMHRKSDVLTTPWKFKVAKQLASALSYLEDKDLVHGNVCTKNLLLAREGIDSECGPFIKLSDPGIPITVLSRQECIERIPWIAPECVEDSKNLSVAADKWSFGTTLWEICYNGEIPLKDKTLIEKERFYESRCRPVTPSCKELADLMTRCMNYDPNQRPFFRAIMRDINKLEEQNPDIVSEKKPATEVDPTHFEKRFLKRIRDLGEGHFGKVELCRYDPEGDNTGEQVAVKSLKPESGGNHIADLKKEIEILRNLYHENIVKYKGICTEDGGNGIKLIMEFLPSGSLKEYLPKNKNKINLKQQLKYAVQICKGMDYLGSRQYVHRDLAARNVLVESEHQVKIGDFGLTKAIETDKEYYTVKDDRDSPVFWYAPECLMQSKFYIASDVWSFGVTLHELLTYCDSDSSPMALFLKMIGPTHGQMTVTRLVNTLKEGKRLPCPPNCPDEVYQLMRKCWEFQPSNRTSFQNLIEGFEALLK
T1 sequence (P62344 whole entry): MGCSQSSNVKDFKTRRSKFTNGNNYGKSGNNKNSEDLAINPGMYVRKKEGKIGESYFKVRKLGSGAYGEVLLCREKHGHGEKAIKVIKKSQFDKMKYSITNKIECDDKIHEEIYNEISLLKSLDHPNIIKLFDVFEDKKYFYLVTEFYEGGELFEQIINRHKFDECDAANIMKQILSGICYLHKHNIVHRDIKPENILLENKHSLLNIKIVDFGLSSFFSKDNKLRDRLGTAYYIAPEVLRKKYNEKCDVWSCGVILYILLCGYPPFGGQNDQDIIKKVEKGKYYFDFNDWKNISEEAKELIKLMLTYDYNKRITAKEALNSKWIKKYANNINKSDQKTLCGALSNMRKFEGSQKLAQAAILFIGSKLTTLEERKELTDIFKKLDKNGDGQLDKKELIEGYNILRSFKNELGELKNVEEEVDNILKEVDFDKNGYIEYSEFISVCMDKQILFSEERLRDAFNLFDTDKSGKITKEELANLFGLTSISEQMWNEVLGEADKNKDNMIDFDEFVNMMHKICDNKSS
T3 sequence (Q9HC98 whole entry): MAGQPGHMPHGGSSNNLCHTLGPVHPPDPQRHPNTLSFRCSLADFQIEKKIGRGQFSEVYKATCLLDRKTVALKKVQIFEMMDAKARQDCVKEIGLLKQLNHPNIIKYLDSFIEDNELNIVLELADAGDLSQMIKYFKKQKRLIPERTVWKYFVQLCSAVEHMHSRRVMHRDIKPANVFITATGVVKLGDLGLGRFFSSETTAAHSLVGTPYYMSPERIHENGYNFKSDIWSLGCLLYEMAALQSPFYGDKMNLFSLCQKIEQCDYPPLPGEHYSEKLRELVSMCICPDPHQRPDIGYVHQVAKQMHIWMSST

SMILES | KINOMEscan: PFCDPK1(P.falciparum) [1] | KINOMEscan: EGFR(L858R,T790M) [2] | KINOMEscan: NEK6 [3] | KINOMEscan: JAK1(JH1domain-catalytic) [4] | KINOMEscan: JAK1(JH2domain-pseudokinase) [4]
COc1cc(C(=O)N2CCC(N3CCN(C)CC3)CC2)ccc1Nc1ncc2c(n1)N(C)c1ccccc1C(=O)N2C [15 (LRRK2-IN-1)] | 100 | 84 | 76 | 100 | 92
COc1cc(C(=O)N2CCC(N3CCN(C)CC3)CC2)ccc1Nc1ncc2c(n1)N1CCc3cccc(c31)C(=O)N2C [Compound 24] | – | – | 56 | – | 62
COc1cc(C(=O)N2CCC(N3CCN(C)CC3)CC2)ccc1Nc1ncc2c(n1)N(C1CCCC1)c1ccccc1C(=O)N2C [Compound 25, 11-cyclopentyl-2-((2-methoxy-4-(4-(4-methylpiperazin-1-yl)piperidine-1-carbonyl)phenyl)amino)-5-methyl-5H-benzo[e]pyrimido[5,4-b][1,4]diazepin-6(11H)-one] | 91 | 100 | 100 | 100 | 100
CCOc1cc(C(=O)N2CCC(N3CCN(C)CC3)CC2)ccc1Nc1ncc2c(n1)N(C1CCCC1)c1ccccc1C(=O)N2C [Compound 26] | 100 | 78 | 100 | 100 | 98
